In patent US10774074B2, “2-(1-heteroarylpiperazin-4-yl)methyl-1,4-benzodioxane derivatives as alpha2C antagonists” (ORION CORPORATION, priority 2015, dated 2020):
Where a name gives a salt, the structure may show the parent alone.

Assays:
human alpha2C receptors = target: T1, human alpha2C receptors (Homo sapiens, UniProt P18825); assay: Determination of alpha2C antagonistic activity in vitro (FLIPR calcium assay, CHO cells); type: cell-based; details: for Kb: Kb calculated with the Cheng-Prusoff equation from IC50, adrenaline as agonist, CHO cells, human alpha2C, read-out: Alpha 2C Adrenaline Kb; for IC50: antagonism of adrenaline stimulation, CHO cells stably transfected with human alpha2C receptor and Gα16, intracellular calcium (FLIPR), read-out: Alpha 2C Adrenaline IC50
T1 construct: host or cells: CHO cells, cotransfected with pCEP-Gα16
T1 sequence (P18825 1-462): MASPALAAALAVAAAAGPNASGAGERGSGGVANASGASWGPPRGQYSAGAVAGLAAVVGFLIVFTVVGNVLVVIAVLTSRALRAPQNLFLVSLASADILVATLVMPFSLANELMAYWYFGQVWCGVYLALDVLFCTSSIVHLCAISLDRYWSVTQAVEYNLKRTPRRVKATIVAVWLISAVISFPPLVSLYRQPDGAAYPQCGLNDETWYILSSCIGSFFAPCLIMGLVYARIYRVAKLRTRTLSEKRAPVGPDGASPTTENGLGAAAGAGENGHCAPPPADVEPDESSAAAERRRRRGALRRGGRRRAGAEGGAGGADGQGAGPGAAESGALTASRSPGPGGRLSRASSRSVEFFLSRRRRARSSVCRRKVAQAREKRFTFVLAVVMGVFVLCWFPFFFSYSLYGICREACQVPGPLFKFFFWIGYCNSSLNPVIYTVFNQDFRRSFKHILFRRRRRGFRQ
Experimental: (§1) EXPERIMENT 1: Determination of alpha2A and alpha2C Antagonistic Activity In Vitro
(§2) Chinese hamster ovary (CHO) cells stably transfected with human alpha2A or alpha2C receptors (University of Turku, Finland) were cotransfected with the expression vector pCEP-Gα16 (Molecular Devices, CA, USA) were used in this experiment. The cells were maintained at 37° C. in a 5% CO2/95% air atmosphere. The cells were cultured in HAM F-12 medium supplemented with 10% FCS, 25 mM HEPES, 100 IU/ml penicillin, 100 µg/ml streptomycin, 500 μg/ml geneticin and 240 μg/ml hygromycin B. The cells were subcultured twice weekly with 0.25% trypsin and 1 mM EDTA. The subculture ratio was 1:5-1:20. The growth medium was changed every 2 or 3 days. All cell culture reagents were from Gibco. The day before the experiment the cells were plated into black-walled, clear bottom 384-well plates at a density of 10,000 cells/well.
(§3) The growth medium was removed and the cells were incubated with the test compounds and the FLIPR Calcium 6 Assay reagent (Molecular Devices, CA, USA) for 2 h at 37° C. in dark. The test compounds (concentrations in cells 100 pM-10 μM) were dissolved in Probenecid-Ringer consisting of 150 mM NaCl, 3 mM KCl, 1.2 mM MgCl2, 1 mM CaCl2, 5 mM glucose, 20 mM HEPES and 2.5 mM probenecid (pH 7.4 adjusted with 1.0 M NaOH). The osmolarity was adjusted to 322 milliosmoles with Osmostat® OM-6020 osmometer (DIC Kyoto Daiichi Kagagu Co. Ltd, Japan). […] All experiments were performed at 37° C. For agonism measurements the test compounds dissolved in Probenecid-Ringer were applied by FLIPR Tetra at 15 s time point. In order to determine antagonism, the cells were stimulated either with 100 nM adrenaline or noradrenaline and the test compounds were added to the cells 2 h before the experiment with the FLIPR Calcium 6 Assay reagent. […] Typically, there were four replicates at each concentration and six different dose levels. For example, if the number of plates from which results were obtained was three, 72 (4*6*3) wells were thus measured to construct dose-response relationship. The samples were excited at 485 nm and emission was detected at 525 nm with a 515 nm cut-off filter. The minimum fluorescence value subtracted from the maximum value for each well was used in the calculations. ScreenWorks version 4.0 software was used for analyzing the results. Fitting of the antagonist dose-response results was performed with the free Hill equation and the IC50 values were fitted with IDBS XE software using model 200: y=(A+(B/(1+((x/C)^D)))), where A is the curve maximum, B the curve minimum and C equals the EC50 value. D is slope factor (Hill). Kb was calculated with the Cheng-Prusoff equation Kb=A/((B/C)+1), where A is the IC50 of antagonist, B the concentration of agonist and C the EC50 of the agonist.

human alpha2A receptors = target: T2, human alpha2A receptors (Homo sapiens, UniProt P08913); assay: Determination of alpha2A antagonistic activity in vitro (FLIPR calcium assay, CHO cells); type: cell-based; details: for Kb: Kb calculated with the Cheng-Prusoff equation from IC50, adrenaline as agonist, CHO cells, human alpha2A, read-out: Alpha 2A Adrenaline Kb; for IC50: antagonism of adrenaline stimulation, CHO cells stably transfected with human alpha2A receptor and Gα16, intracellular calcium (FLIPR), read-out: Alpha 2A Adrenaline IC50
T2 construct: host or cells: CHO cells, cotransfected with pCEP-Gα16
T2 sequence (P08913 1-465): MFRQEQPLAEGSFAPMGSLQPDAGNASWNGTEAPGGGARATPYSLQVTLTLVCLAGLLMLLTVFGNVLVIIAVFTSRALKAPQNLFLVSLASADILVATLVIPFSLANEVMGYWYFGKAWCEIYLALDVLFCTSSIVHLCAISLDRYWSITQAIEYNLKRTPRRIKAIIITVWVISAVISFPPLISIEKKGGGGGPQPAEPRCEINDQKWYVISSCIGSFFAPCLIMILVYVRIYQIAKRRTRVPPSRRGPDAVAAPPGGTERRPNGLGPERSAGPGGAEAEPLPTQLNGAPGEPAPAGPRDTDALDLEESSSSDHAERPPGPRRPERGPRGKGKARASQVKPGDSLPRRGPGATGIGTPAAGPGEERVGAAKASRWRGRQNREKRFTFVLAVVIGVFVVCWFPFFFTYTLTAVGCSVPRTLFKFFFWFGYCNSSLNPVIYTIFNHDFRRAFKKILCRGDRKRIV
Experimental: as §1, §2, §3

| Kb (human alpha2C receptors) [nM] | IC50 (human alpha2C receptors) [nM] | Kb (human alpha2A receptors) [nM] | IC50 (human alpha2A receptors) [nM] | Compound |
| --- | --- | --- | --- | --- |
| 1 | 0.1 | 206 | 4590 | Cc1c(N2CCOC2=O)c(N2CCN(C[C@H]3COc4ccccc4O3)CC2)nn1C [Compound of example 5, (S)-3-(3-(4-((2,3-Dihydrobenzo[b][1,4]dioxin-2-yl)methyl)piperazin-1-yl)-1,5-dimethyl-1H-pyrazol-4-yl)oxazolidin-2-one] |
| 1350 | 136 | > 449 | > 10000 | COCc1nc(N2CCN(C[C@H]3COc4ccccc4O3)CC2)no1 [Compound of example 23, (S)-3-(4-((2,3-Dihydrobenzo[b][1,4]dioxin-2-yl)methyl)piperazin-1-yl)-5-(methoxymethyl)-1,2,4-oxadiazole] |
| < 0.1 | < 0.01 | < 0.004 | < 0.1 | Cc1c(N2C(=O)c3ccccc3C2=O)c(N2CCN(C[C@H]3COc4ccccc4O3)CC2)nn1C [Compound of example 2, (S)-2-(3-(4-((2,3-Dihydrobenzo[b][1,4]dioxin-2-yl)methyl)piperazin-1-yl)-1,5-dimethyl-1H-pyrazol-4-yl)isoindoline-1,3-dione] |
| 28.4 | 2.86 | 514 | 11500 | O=C1NCCN1c1nnc(N2CCN(C[C@H]3COc4ccccc4O3)CC2)s1 [Compound of example 25, (S)-1-(5-(4-((2,3-Dihydrobenzo[b][1,4]dioxin-2-yl)methyl)piperazin-1-yl)-1,3,4-thiadiazol-2-yl)imidazolidin-2-one] |
| 1570 | 158 | > 449 | > 10000 | c1ccc2c(c1)OC[C@H](CN1CCN(c3nncs3)CC1)O2 [Compound of example 22, (S)-2-(4-((2,3-Dihydrobenzo[b][1,4]dioxin-2-yl)methyl)piperazin-1-yl)-1,3,4-thiadiazole] |
| 135 | 13.6 | 298 | 6650 | c1ccc2c(c1)OC[C@H](CN1CCN(c3nsc4cccnc34)CC1)O2 [Compound of example 36, (S)-3-(4-((2,3-Dihydrobenzo[b][1,4]dioxin-2-yl)methyl)piperazin-1-yl)isothiazolo[4,5-b]pyridine hydrochloride] |
